# Source: paper doi:10.1101/2023.12.04.569845, “Identification of 4-(6-((2-methoxyphenyl)amino)pyrazin-2-yl)benzoic acids as CSNK2A inhibitors with antiviral activity and improved selectivity over PIM3” (bioRxiv, 2023)
# Where two headings read alike, the source gives them in different places.
# Tests used:
# Assay in all cases: biochemical
# Parameters in all cases: Thermal shift (DSF, SYPRO Orange) Tm shift of recombinant kinase domains at 10 uM compound
# [1] = molecular target: T1, NEK2 (Homo sapiens, UniProt P51955)
# T1 sequence (P51955 1-445): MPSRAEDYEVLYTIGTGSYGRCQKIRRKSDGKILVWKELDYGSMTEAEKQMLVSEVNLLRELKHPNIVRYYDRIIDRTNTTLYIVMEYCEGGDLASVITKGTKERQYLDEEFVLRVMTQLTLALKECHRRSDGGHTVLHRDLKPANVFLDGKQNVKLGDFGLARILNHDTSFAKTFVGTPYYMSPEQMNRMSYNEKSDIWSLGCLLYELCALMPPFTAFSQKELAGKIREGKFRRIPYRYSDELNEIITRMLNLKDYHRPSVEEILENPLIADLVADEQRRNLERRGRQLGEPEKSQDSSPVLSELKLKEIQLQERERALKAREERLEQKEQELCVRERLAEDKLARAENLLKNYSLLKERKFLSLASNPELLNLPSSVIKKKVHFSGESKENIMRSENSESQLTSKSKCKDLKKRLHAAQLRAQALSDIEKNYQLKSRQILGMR
# [2] = molecular target: T2, MAP2K6 (Homo sapiens, UniProt P52564)
# T2 sequence (P52564 1-334): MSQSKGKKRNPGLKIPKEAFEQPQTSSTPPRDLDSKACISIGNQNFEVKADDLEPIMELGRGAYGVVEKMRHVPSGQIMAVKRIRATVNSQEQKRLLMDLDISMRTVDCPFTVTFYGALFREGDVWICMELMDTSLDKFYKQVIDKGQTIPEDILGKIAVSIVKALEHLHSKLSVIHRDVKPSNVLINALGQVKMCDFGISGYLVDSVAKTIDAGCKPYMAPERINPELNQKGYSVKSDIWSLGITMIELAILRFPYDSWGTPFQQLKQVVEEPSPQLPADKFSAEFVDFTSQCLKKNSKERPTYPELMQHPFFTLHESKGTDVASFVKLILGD
# [3] = molecular target: ABL1 (Homo sapiens, UniProt P00519)
# Sequence of ABL1 (P00519 whole entry): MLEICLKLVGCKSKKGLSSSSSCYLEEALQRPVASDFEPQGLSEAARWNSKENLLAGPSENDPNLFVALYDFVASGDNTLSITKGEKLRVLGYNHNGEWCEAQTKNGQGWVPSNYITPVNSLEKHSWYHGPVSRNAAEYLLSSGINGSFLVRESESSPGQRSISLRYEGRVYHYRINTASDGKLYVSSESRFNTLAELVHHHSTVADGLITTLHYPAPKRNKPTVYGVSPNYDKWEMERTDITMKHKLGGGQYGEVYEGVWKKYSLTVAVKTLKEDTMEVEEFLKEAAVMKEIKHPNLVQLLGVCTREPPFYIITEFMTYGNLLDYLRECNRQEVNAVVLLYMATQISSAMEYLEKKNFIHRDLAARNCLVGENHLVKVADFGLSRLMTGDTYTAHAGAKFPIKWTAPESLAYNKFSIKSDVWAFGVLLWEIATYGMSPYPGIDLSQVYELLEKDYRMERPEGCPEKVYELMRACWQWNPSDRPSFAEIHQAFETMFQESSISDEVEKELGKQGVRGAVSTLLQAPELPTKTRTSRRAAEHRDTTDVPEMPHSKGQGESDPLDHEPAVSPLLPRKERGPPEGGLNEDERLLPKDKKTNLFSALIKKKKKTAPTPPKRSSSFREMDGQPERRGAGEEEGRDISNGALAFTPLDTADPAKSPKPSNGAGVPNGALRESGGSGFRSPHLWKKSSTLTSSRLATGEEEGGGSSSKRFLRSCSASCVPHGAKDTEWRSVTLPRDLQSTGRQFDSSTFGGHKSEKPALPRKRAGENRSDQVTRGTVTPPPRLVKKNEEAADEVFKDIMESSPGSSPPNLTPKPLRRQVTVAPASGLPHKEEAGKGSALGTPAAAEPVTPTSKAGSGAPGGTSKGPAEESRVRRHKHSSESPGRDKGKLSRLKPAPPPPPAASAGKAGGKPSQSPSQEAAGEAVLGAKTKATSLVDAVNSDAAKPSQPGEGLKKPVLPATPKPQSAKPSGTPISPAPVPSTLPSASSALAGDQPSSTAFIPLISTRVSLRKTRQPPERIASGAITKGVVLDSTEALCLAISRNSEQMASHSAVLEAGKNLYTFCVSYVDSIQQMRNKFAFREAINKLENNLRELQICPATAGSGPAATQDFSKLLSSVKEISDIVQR
# [4] = molecular target: CAMK1G (Homo sapiens, UniProt Q96NX5)
# Sequence of CAMK1G (Q96NX5 whole entry): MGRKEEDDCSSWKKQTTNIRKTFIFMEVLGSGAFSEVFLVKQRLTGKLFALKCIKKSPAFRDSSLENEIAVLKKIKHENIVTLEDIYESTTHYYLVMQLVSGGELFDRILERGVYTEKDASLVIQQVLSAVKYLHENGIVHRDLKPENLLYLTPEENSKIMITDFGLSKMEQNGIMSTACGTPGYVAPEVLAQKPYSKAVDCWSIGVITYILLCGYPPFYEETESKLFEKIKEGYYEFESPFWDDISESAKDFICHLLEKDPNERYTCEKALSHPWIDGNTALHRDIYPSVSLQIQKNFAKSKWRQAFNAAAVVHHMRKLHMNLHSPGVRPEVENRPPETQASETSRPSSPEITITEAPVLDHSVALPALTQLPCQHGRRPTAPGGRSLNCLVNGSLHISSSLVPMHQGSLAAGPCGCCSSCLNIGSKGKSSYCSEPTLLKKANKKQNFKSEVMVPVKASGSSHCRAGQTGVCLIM
# [5] = molecular target: T3, BMPR2 (Homo sapiens, UniProt Q13873)
# T3 sequence (Q13873 1-1038): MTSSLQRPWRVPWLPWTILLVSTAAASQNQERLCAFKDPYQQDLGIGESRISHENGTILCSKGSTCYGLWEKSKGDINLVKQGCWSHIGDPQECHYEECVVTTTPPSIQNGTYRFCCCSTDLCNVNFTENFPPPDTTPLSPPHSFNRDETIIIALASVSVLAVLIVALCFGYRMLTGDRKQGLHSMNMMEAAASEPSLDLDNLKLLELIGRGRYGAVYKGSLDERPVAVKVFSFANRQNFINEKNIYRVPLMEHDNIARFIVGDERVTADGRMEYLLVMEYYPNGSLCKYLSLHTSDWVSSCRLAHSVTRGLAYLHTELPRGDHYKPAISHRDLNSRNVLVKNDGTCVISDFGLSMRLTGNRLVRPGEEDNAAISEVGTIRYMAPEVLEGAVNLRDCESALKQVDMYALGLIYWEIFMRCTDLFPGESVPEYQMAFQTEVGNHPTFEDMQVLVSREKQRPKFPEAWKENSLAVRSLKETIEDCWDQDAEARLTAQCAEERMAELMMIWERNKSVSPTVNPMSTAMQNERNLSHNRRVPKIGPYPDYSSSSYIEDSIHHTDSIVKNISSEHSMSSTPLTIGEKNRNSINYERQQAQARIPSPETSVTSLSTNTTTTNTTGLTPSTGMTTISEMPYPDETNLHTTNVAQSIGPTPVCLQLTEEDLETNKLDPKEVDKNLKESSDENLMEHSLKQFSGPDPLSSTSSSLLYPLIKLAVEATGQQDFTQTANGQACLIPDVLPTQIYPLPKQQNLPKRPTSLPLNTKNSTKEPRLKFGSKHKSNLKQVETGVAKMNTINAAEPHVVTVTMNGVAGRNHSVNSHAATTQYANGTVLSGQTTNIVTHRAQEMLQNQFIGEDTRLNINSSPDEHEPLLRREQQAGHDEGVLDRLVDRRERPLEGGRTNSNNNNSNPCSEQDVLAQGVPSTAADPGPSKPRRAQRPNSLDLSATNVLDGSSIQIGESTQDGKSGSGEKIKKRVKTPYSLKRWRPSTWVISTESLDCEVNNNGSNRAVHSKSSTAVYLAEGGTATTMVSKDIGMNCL
# [6] = molecular target: T4, GPRK5 (Homo sapiens, UniProt P34947)
# T4 construct: gene GRK5
# T4 sequence (P34947 whole entry): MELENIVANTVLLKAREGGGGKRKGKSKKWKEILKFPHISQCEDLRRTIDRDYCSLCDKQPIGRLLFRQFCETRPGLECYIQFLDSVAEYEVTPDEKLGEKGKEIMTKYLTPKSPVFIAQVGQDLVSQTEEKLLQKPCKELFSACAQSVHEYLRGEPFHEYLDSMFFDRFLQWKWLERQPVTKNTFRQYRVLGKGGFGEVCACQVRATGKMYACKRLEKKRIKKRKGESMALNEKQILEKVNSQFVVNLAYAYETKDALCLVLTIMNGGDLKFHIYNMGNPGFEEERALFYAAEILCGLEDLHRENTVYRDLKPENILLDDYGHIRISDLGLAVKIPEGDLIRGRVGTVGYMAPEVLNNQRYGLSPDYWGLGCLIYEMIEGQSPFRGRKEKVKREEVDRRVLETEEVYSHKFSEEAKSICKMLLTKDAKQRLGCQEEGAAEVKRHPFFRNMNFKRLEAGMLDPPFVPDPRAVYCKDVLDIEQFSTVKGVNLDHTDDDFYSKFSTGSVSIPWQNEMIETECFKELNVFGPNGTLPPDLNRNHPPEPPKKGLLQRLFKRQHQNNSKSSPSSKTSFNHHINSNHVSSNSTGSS
# [7] = molecular target: T5, DRAK1 (Homo sapiens, UniProt Q9UEE5)
# T5 construct: gene STK17A
# T5 sequence (Q9UEE5 1-414): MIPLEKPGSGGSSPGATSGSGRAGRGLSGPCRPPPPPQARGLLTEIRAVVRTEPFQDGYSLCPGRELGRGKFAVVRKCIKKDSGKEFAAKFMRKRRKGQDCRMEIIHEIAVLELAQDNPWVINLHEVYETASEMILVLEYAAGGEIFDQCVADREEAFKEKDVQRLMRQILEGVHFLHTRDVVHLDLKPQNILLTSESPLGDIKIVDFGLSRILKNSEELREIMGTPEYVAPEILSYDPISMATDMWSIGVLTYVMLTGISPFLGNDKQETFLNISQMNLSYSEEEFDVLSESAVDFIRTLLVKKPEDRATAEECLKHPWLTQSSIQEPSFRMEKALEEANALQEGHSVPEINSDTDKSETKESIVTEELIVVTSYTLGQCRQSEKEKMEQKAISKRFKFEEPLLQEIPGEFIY
# [8] = molecular target: EPHA5 (Homo sapiens, UniProt P54756)
# Sequence of EPHA5 (P54756 whole entry): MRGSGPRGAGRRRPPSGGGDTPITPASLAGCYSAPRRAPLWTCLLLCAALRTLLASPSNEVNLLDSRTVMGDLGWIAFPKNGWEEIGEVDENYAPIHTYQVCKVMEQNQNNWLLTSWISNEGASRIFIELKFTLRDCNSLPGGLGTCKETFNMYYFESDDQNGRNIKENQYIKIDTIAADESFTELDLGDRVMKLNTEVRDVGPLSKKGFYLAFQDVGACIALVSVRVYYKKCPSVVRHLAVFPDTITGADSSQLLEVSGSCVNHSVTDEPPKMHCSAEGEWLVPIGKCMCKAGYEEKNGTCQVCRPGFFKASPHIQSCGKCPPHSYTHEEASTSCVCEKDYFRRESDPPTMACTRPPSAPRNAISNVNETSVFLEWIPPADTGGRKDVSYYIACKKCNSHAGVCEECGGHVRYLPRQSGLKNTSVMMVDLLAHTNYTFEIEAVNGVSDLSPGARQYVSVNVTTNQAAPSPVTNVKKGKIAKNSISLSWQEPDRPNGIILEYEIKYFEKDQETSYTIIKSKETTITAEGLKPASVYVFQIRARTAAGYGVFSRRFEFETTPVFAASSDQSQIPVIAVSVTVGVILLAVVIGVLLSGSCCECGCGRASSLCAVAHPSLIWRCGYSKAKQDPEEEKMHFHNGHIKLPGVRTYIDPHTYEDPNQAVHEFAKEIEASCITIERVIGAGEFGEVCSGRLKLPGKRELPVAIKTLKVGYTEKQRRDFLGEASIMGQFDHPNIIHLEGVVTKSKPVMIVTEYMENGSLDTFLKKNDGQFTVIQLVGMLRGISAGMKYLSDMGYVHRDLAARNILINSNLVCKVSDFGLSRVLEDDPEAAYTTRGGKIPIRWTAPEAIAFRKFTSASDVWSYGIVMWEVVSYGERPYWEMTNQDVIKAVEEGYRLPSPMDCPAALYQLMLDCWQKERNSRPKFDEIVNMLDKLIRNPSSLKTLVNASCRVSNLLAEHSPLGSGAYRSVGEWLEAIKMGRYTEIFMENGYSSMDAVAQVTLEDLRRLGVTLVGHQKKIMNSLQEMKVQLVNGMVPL
smiles,measurement,setting,value
CC(C)Oc1ccc2ccn(-c3cncc(-c4ccc(C(=O)O)cc4)n3)c2c1 [6c],ΔTm at 10 µM,[1]; read-out: 6c,-4 °C
same,ΔTm at 10 µM,[2]; read-out: 6c,3 °C
same,ΔTm at 10 µM,[3]; read-out: 6c,8 °C
same,ΔTm at 10 µM,[4]; read-out: 6c,0 °C
same,ΔTm at 10 µM,[5]; read-out: 6c,7 °C
same,ΔTm at 10 µM,[6]; read-out: 6c,4 °C
same,ΔTm at 10 µM,[7]; read-out: 6c,6 °C
same,ΔTm at 10 µM,[8]; read-out: 6c,2 °C
COc1ccc(OC(C)C)cc1Nc1cncc(-c2ccc(C(=O)O)cc2)n1 [7c],ΔTm at 10 µM,[1]; read-out: 7c,-1 °C
same,ΔTm at 10 µM,[2]; read-out: 7c,0 °C
same,ΔTm at 10 µM,[3]; read-out: 7c,7 °C
same,ΔTm at 10 µM,[4]; read-out: 7c,-1 °C
same,ΔTm at 10 µM,[5]; read-out: 7c,0 °C
same,ΔTm at 10 µM,[6]; read-out: 7c,4 °C
same,ΔTm at 10 µM,[7]; read-out: 7c,4 °C
same,ΔTm at 10 µM,[8]; read-out: 7c,1 °C
"CC(C)Nc1ccc2cnn(-c3cncc(-c4ccc(C(=O)O)cc4)n3)c2c1 [compound 2, 2]",ΔTm at 10 µM,[1]; read-out: 2,-2 °C
same,ΔTm at 10 µM,[2]; read-out: 2,2 °C
same,ΔTm at 10 µM,[3]; read-out: 2,7 °C
same,ΔTm at 10 µM,[4]; read-out: 2,2 °C
same,ΔTm at 10 µM,[5]; read-out: 2,6 °C
same,ΔTm at 10 µM,[6]; read-out: 2,6 °C
same,ΔTm at 10 µM,[7]; read-out: 2,8 °C
same,ΔTm at 10 µM,[8]; read-out: 2,2 °C
